Reference: patent publication US8158820B2, “Compounds” (AstraZeneca AB, priority 2003, dated 2012)

Biological target: T1, CRTh2 (Homo sapiens, UniProt Q9Y5Y4)
T1 construct: expressed in transfected cells; host or cells: HEK cells (stably transfected, geneticin selection; membranes prepared)
T1 sequence (Q9Y5Y4 1-395): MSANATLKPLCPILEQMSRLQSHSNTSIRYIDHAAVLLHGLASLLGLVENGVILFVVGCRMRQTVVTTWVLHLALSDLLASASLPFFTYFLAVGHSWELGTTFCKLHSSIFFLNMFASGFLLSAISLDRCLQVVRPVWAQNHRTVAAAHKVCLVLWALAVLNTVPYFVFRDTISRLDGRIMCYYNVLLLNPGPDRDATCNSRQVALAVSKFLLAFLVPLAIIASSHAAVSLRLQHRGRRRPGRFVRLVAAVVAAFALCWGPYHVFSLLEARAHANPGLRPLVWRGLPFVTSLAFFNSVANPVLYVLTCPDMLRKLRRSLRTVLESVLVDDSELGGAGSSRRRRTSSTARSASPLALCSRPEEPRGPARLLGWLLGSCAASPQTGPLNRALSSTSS
Assay: Ligand Binding Assay ([3H]PGD2, SPA beads, HEK cell membranes)
Settings: [3H]PGD2 binding to membranes of HEK cells expressing rhCRTh2/Gα16
Method: [^3H]PGD2 was purchased from Perkin Elmer Life Sciences with a specific activity of 100-210 Ci/mmol. All other chemicals were of analytical grade.
HEK cells expressing rhCRTh2/Gα16 were routinely maintained in DMEM containing 10% Foetal Bovine Serum (HyClone), 1 mg/ml geneticin, 2 mM L-glutamine and 1% non-essential amino acids. For the preparation of membranes, the adherent transfected HEKcells were grown to confluence in two layer tissue culture factories (Fisher, catalogue number TKT-170-070E). Maximal levels of receptor expression were induced by addition of […] sodium butyrate for the last 18 hours of culture. The adherent cells were washed once with phosphate buffered saline (PBS, 50 ml per cell factory) and detached by the addition of 50 ml per cell factory of ice-cold membrane homogenisation buffer [20 mM HEPES (pH 7.4), 0.1 mM dithiothreitol, 1 mM EDTA, 0.1 mM phenyl methyl sulphonyl fluoride and 100 μg/ml bacitracin]. […] The final pellet was re-suspended in 4 ml of membrane homogenisation buffer per cell factory used and the protein content determined. […]
All assays were performed in Corning clear bottomed, white 96-well NBS plates (Fisher). […] (The optimum coating concentrations were determined for each batch of membranes) The beads were pelleted by centrifugation (800×g for 7 minutes at 4° C.), washed once with assay buffer (50 mM HEPES pH 7.4 containing 5 mM magnesium chloride) and finally re-suspended in assay buffer at a bead concentration of 10 mg/ml.
Each assay contained 20 μl of 6.25 nM [^3H]PGD2, 20 μl membrane saturated SPA beads both in assay buffer and 10 μl of compound solution or 13,14-dihydro-15-keto prostaglandin D2 (DK-PGD2, for determination of non-specific binding, Cayman chemical company). […] The assay plate was incubated at room temperature for 2 hours and counted on a Wallac Microbeta liquid scintillation counter (1 minute per well).

Row | IC50 [nM] | Compound
1 | 6.31 | CNS(=O)(=O)c1ccc(-c2cc(C(F)(F)F)ccc2OCC(=O)O)cc1 [Example 133, [[4′-[(Methylamino)sulfonyl]-5-(trifluoromethyl)[1,1′-biphenyl]-2-yl]oxy]-acetic acid]
2 | 10 | CN(c1ncc(-c2cc(Cl)ccc2OCC(=O)O)cn1)S(C)(=O)=O [Example 25, (4-Chloro-2-{2-[methyl(methylsulfonyl)amino]pyrimidin-5-yl}phenoxy)acetic acid]
3 | 39.8 | CS(=O)(=O)c1ccc(-c2cc(Cl)ccc2OCC(=O)O)cc1 [Example 9, {[5-Chloro-4′-(methylsulfonyl)biphenyl-2-yl]oxy}acetic acid]
